Measured values: ChEMBL document CHEMBL3991601, “The target landscape of clinical kinase drugs” (Science, 2017)
Activity calls are given as the source filed them. On the calls: in the data inactive means no Kd found up to 30 µM.

Experiments:
[1] = target: Cell division cycle 7-related protein kinase (Homo sapiens, UniProt O00311)
[2] = target: Serine/threonine-protein kinase PAK 6 (Homo sapiens, UniProt Q9NQU5)
[3] = target: Serine/threonine-protein kinase 24 (Homo sapiens, UniProt Q9Y6E0)
[4] = target: Serine/threonine-protein kinase Nek7 (Homo sapiens, UniProt Q8TDX7)
Sequence of Serine/threonine-protein kinase Nek7 (Q8TDX7 whole entry): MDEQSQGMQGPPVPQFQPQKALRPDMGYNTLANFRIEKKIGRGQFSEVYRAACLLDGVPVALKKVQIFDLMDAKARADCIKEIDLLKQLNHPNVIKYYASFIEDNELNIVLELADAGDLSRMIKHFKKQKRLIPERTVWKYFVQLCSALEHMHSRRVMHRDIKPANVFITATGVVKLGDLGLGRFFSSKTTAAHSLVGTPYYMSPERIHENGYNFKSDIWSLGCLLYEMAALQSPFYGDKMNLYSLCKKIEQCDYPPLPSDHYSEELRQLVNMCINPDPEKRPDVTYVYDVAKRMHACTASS

[5] = target: Serine/threonine-protein kinase pim-2 (Homo sapiens, UniProt Q9P1W9)
Sequence of Serine/threonine-protein kinase pim-2 (Q9P1W9 whole entry): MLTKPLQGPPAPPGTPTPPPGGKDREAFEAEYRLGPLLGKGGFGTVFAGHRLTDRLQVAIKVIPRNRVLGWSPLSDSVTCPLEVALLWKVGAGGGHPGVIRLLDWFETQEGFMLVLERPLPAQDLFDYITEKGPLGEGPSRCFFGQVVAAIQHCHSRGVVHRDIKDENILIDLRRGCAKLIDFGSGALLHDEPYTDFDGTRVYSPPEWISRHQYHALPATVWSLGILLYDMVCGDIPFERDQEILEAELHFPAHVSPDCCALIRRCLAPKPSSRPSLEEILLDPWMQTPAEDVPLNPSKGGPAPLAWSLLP

[6] = target: T1, Protein kinase C zeta type (Homo sapiens, UniProt Q05513)
T1 sequence (Q05513 whole entry): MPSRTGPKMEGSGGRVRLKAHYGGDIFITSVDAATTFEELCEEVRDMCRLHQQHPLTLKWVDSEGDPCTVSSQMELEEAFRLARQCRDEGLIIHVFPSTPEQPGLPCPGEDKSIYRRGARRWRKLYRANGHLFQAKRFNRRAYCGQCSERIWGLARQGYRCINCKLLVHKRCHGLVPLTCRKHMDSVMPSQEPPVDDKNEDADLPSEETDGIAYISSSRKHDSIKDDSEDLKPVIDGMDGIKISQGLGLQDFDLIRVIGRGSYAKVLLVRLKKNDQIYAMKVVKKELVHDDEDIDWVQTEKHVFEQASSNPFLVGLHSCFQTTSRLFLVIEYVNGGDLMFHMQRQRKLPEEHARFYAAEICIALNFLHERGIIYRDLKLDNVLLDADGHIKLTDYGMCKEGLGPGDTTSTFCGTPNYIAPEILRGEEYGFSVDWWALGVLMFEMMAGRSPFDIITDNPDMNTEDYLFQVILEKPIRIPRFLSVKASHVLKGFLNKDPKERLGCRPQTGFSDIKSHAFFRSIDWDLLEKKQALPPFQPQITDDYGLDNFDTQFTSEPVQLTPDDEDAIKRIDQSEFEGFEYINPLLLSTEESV

UMP-CMP kinase = target: T2, UMP-CMP kinase (Homo sapiens, UniProt P30085)
T2 sequence (P30085 whole entry): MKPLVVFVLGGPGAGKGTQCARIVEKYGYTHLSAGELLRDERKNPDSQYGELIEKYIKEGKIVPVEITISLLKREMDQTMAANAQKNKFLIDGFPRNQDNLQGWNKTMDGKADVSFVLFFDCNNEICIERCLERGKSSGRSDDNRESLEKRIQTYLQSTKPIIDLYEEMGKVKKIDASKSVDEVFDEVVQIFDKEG

[7] = target: T3, Electron transfer flavoprotein subunit beta (Homo sapiens, UniProt P38117)
T3 sequence (P38117 whole entry): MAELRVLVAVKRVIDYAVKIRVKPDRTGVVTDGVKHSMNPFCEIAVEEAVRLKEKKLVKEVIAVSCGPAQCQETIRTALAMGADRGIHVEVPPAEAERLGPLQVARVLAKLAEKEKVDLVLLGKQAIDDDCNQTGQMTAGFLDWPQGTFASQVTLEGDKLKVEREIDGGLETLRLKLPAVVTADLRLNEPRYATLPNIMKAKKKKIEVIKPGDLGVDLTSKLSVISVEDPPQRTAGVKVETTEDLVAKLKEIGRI

[8] = target: T4, Dual specificity mitogen-activated protein kinase kinase 4 (Homo sapiens, UniProt P45985)
T4 sequence (P45985 whole entry): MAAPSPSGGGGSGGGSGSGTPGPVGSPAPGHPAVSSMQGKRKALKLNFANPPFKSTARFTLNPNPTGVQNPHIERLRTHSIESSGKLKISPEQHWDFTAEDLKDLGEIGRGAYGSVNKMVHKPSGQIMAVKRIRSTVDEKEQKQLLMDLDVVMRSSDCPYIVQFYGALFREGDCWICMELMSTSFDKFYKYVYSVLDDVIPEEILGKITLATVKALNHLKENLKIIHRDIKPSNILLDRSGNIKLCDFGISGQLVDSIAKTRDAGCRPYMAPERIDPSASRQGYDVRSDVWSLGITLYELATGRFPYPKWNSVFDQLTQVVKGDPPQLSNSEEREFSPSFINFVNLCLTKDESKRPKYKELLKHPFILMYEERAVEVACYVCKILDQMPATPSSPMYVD

[9] = target: T5, Long-chain-fatty-acid--CoA ligase 5 (Homo sapiens, UniProt Q9ULC5)
T5 sequence (Q9ULC5 whole entry): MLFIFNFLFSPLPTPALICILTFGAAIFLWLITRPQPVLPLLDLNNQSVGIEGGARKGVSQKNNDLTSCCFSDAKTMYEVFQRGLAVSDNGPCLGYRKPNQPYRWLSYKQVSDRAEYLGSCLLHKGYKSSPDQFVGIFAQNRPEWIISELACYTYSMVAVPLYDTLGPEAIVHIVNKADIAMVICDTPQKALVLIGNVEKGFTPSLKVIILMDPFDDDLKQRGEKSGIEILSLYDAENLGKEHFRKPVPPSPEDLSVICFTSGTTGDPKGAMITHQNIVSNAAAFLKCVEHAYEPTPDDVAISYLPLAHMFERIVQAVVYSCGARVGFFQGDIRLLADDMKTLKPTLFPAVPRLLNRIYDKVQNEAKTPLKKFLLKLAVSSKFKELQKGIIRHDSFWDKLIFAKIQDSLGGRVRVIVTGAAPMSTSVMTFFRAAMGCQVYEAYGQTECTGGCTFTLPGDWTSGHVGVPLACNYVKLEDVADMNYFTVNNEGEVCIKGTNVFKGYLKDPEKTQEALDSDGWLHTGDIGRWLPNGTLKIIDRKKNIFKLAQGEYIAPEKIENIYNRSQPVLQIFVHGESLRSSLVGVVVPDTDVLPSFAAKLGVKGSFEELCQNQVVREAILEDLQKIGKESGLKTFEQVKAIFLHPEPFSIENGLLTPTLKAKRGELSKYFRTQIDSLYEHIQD

[10] = target: Uncharacterized aarF domain-containing protein kinase 5 (Homo sapiens, UniProt Q3MIX3)
Sequence of Uncharacterized aarF domain-containing protein kinase 5 (Q3MIX3 whole entry, the tested form may be a part): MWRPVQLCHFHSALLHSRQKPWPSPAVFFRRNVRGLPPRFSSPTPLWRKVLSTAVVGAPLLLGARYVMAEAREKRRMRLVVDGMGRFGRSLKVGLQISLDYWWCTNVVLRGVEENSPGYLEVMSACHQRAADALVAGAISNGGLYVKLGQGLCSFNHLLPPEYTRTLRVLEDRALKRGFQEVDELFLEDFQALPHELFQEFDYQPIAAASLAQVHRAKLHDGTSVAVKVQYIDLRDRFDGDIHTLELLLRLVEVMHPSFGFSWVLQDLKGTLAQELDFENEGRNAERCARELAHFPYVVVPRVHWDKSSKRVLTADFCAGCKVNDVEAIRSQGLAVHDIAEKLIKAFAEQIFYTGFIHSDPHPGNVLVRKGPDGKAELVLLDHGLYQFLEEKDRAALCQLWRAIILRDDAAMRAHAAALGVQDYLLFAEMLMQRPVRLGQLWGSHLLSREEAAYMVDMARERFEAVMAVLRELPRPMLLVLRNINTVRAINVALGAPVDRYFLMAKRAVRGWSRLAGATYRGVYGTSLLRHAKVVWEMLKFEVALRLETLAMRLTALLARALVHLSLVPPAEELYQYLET

[11] = target: Dual specificity protein kinase CLK4 (Homo sapiens, UniProt Q9HAZ1)
Sequence of Dual specificity protein kinase CLK4 (Q9HAZ1 whole entry): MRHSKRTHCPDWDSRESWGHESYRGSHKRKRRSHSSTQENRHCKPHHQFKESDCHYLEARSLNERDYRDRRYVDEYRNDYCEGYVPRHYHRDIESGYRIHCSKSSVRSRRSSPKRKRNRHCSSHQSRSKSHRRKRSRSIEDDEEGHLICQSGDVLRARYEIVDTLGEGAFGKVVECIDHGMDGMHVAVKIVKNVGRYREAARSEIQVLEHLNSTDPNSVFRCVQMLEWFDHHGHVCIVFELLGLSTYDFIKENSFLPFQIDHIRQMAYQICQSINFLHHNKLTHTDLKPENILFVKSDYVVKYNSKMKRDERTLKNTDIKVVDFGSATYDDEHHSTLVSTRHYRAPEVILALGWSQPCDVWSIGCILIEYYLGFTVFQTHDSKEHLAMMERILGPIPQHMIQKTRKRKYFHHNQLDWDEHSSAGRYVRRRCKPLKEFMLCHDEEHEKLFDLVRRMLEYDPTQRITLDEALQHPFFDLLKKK

[12] = target: Dual specificity protein kinase CLK3 (Homo sapiens, UniProt P49761); type: subcellular, K-562, COLO 205, SK-N-BE(2) and MV-4-11, Cell lysate; details: read-out: Kd apparent
Sequence of Dual specificity protein kinase CLK3 (P49761 whole entry): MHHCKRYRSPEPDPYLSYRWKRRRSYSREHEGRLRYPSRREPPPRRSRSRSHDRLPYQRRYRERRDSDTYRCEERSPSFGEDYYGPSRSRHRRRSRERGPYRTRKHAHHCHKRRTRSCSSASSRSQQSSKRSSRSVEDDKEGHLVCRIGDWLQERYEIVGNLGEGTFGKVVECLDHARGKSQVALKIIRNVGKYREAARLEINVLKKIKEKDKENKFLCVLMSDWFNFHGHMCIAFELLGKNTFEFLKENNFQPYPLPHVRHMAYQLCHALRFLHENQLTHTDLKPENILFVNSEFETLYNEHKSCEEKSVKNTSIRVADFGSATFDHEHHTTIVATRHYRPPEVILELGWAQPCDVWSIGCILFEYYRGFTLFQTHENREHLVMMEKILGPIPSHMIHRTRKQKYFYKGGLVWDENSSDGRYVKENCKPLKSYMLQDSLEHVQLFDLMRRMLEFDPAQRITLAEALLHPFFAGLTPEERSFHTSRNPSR

[13] = target: MAP kinase-activated protein kinase 3 (Homo sapiens, UniProt Q16644)
Sequence of MAP kinase-activated protein kinase 3 (Q16644 whole entry): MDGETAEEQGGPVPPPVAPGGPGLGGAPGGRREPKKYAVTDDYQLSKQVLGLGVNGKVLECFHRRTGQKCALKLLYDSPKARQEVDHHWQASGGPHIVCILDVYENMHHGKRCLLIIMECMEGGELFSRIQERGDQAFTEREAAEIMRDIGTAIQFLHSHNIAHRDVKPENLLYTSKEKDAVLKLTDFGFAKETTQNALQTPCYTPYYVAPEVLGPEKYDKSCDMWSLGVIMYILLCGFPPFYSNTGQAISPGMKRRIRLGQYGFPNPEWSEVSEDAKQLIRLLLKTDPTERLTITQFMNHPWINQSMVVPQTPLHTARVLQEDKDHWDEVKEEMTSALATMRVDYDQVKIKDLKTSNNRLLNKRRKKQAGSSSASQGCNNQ

Sequence of Cell division cycle 7-related protein kinase (O00311 whole entry): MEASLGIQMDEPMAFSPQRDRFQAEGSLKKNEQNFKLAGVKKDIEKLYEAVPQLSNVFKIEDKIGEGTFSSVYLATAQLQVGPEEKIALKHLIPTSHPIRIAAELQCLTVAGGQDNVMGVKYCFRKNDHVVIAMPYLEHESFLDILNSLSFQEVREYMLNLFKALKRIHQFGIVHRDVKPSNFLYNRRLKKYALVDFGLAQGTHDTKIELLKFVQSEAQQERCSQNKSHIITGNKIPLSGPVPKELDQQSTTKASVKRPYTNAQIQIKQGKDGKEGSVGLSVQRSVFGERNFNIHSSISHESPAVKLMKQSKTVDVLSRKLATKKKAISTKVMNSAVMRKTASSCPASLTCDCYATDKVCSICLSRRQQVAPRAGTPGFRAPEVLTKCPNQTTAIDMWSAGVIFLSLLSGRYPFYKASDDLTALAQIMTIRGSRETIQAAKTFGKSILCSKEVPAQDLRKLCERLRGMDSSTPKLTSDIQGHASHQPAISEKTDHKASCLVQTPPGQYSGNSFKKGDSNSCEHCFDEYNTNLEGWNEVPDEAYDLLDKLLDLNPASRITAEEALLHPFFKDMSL
Sequence of Serine/threonine-protein kinase 24 (Q9Y6E0 whole entry): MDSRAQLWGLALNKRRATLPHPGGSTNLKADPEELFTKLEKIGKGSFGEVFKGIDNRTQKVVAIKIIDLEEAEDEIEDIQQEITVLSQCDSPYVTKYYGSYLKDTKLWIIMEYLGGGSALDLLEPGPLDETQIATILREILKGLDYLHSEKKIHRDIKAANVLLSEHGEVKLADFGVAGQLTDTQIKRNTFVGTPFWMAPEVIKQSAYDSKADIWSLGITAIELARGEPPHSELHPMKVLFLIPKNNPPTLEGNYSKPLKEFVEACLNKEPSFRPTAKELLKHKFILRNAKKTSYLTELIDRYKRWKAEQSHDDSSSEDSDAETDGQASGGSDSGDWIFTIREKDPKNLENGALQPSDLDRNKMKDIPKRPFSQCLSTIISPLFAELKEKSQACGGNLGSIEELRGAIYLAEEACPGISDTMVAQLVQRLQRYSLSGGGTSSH
Sequence of Serine/threonine-protein kinase PAK 6 (Q9NQU5 whole entry): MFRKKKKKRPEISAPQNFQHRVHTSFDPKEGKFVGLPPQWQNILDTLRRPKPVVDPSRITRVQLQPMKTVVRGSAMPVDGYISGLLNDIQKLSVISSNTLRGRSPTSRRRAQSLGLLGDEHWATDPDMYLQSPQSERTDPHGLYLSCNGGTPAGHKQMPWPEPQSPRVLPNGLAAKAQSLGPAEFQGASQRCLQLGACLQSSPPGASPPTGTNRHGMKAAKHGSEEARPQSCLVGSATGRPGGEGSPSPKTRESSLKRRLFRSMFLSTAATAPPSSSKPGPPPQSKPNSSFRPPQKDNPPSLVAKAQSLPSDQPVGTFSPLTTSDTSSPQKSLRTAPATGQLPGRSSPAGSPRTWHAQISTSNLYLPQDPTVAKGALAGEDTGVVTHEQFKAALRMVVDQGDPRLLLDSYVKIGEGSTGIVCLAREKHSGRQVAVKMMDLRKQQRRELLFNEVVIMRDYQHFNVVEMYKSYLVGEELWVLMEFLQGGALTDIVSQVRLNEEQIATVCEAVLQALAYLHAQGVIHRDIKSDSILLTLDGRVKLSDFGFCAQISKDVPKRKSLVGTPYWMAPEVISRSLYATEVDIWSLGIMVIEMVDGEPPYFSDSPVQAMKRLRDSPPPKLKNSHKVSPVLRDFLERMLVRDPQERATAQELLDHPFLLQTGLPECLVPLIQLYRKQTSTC

Compound | Kd [1] | Kd [2] | Kd [3] | Kd [4] | Kd [5] | Kd [6] | Kd (UMP-CMP kinase) | Kd [7] | Kd [8] | Kd [9] | Kd [10] | Kd [11] | Kd [12] | Kd [13]
C[C@@H](Oc1cc(C(=O)Nc2ccc(C(=O)N3CCN(C)CC3)cc2)nnc1N)c1c(Cl)ccc(F)c1Cl | > 30 µM (inactive) | > 30 µM (inactive) | > 30 µM (inactive) | > 30 µM (inactive) | > 30 µM (inactive) | – | – | – | – | – | – | – | – | –
C[C@H]1CNCCCN1S(=O)(=O)c1cccc2cncc(F)c12 | – | > 30 µM (inactive) | > 30 µM (inactive) | > 30 µM (inactive) | – | > 30 µM (inactive) | – | – | – | – | – | – | – | –
CC(=O)c1cnc2ccc(-c3cc(Cl)c(O)c(Cl)c3)nc2c1N[C@H]1CC[C@H](CN(C)C)CC1 | – | – | – | > 30 µM (inactive) | – | – | > 30 µM (inactive) | > 30 µM (inactive) | – | – | – | – | – | –
COc1cc(Nc2ncc3c(n2)-c2ccc(Cl)cc2C(c2c(F)cccc2OC)=NC3)ccc1C(=O)O [ALISERTIB] | – | > 30 µM (inactive) | > 30 µM (inactive) | > 30 µM (inactive) | – | – | > 30 µM (inactive) | > 30 µM (inactive) | > 30 µM (inactive) | > 30 µM (inactive) | > 30 µM (inactive) | – | – | –
Cc1nc(NC(=O)N2CCC[C@H]2C(N)=O)sc1-c1ccnc(C(C)(C)C(F)(F)F)c1 [ALPELISIB] | – | – | – | – | – | – | > 30 µM (inactive) | > 30 µM (inactive) | > 30 µM (inactive) | – | – | > 30 µM (inactive) | – | –
CNC(=O)c1ccccc1Sc1ccc2c(/C=C/c3ccccn3)n[nH]c2c1 [AXITINIB] | > 30 µM (inactive) | – | – | – | – | > 30 µM (inactive) | > 30 µM (inactive) | > 30 µM (inactive) | – | > 30 µM (inactive) | – | – | – | –
NC(=O)Nc1cc(-c2cccc(F)c2)sc1C(=O)N[C@H]1CCCNC1 [AZD-7762] | – | – | – | > 30 µM (inactive) | > 30 µM (inactive) | – | > 30 µM (inactive) | > 30 µM (inactive) | – | > 30 µM (inactive) | > 30 µM (inactive) | > 30 µM (inactive) | > 30 µM (inactive) | –
Cn1cc(C2=C(c3cn(C4CCN(Cc5ccccn5)CC4)c4ccccc34)C(=O)NC2=O)c2ccccc21 [ENZASTAURIN] | > 30 µM (inactive) | – | – | – | – | – | – | – | – | – | – | – | – | > 30 µM (inactive)
Cc1nc2cc(-n3ncc(C(=O)c4cc5ccccc5[nH]4)c3N)ccc2[nH]1 [FGFR INHIBITOR DEBIO 1347] | > 30 µM (inactive) | – | > 30 µM (inactive) | – | > 30 µM (inactive) | – | > 30 µM (inactive) | > 30 µM (inactive) | – | > 30 µM (inactive) | – | – | – | –
Cc1cccc(-c2nn3c(c2-c2ccnc4ccc(C(N)=O)cc24)CCC3)n1 [GALUNISERTIB] | – | > 30 µM (inactive) | > 30 µM (inactive) | > 30 µM (inactive) | > 30 µM (inactive) | – | – | > 30 µM (inactive) | – | > 30 µM (inactive) | – | > 30 µM (inactive) | – | –
CNC(=O)c1cccc2cc(Oc3ccnc4cc(OCC5(N)CC5)c(OC)cc34)ccc12 [LUCITANIB] | > 30 µM (inactive) | – | > 30 µM (inactive) | > 30 µM (inactive) | > 30 µM (inactive) | – | > 30 µM (inactive) | > 30 µM (inactive) | – | – | – | – | – | –
Cc1[nH]c(/C=C2\C(=O)Nc3ccccc32)c(C)c1CCC(=O)O [ORANTINIB] | – | > 30 µM (inactive) | – | > 30 µM (inactive) | – | – | – | > 30 µM (inactive) | > 30 µM (inactive) | > 30 µM (inactive) | > 30 µM (inactive) | – | > 30 µM (inactive) | –
N#CC[C@H](C1CCCC1)n1cc(-c2ncnc3[nH]ccc23)cn1 [RUXOLITINIB] | > 30 µM (inactive) | – | – | – | – | – | – | > 30 µM (inactive) | – | – | – | – | – | –
CN1CCN(CCOc2cc(OC3CCOCC3)c3c(Nc4c(Cl)ccc5c4OCO5)ncnc3c2)CC1 [SARACATINIB] | – | > 30 µM (inactive) | > 30 µM (inactive) | > 30 µM (inactive) | > 30 µM (inactive) | > 30 µM (inactive) | – | – | > 30 µM (inactive) | > 30 µM (inactive) | – | – | > 30 µM (inactive) | –
CO[C@H]1C[C@@H]2CC[C@@H](C)[C@@](O)(O2)C(=O)C(=O)N2CCCC[C@H]2C(=O)O[C@H]([C@H](C)C[C@@H]2CC[C@@H](O)[C@H](OC)C2)CC(=O)[C@H](C)/C=C(\C)[C@@H](O)[C@@H](OC)C(=O)[C@H](C)C[C@H](C)/C=C/C=C/C=C/1C [SIROLIMUS] | > 30 µM (inactive) | – | > 30 µM (inactive) | – | – | > 30 µM (inactive) | > 30 µM (inactive) | > 30 µM (inactive) | – | – | > 30 µM (inactive) | > 30 µM (inactive) | > 30 µM (inactive) | –
CN1C/C=C/CCOc2cccc(c2)-c2ccnc(n2)Nc2cccc(c2)C1 [ZOTIRACICLIB] | – | – | – | > 30 µM (inactive) | – | > 30 µM (inactive) | – | – | – | > 30 µM (inactive) | – | – | – | –

Continued, in another order:

Kd [1] | Kd [2] | Kd [3] | Kd [4] | Kd [5] | Kd [6] | Kd (UMP-CMP kinase) | Kd [7] | Kd [8] | Kd [9] | Kd [10] | Kd [11] | Kd [12] | Compound | Kd [13]
– | – | – | > 30 µM (inactive) | – | – | > 30 µM (inactive) | – | > 30 µM (inactive) | – | > 30 µM (inactive) | – | > 30 µM (inactive) | Cc1cc(C(=O)NOCCO)c(Nc2ccc(I)cc2F)n(C)c1=O [AZD-8330] | –
> 30 µM (inactive) | > 30 µM (inactive) | > 30 µM (inactive) | > 30 µM (inactive) | > 30 µM (inactive) | > 30 µM (inactive) | – | – | – | – | > 30 µM (inactive) | > 30 µM (inactive) | > 30 µM (inactive) | COc1ccc(S(=O)(=O)N(C(C)=O)c2ccccc2/C=C/c2cc[n+]([O-])cc2)cc1 [HMN-214] | –
> 30 µM (inactive) | > 30 µM (inactive) | – | > 30 µM (inactive) | > 30 µM (inactive) | – | > 30 µM (inactive) | > 30 µM (inactive) | – | > 30 µM (inactive) | > 30 µM (inactive) | > 30 µM (inactive) | > 30 µM (inactive) | Cn1cc(-c2cnc3ccc4ccc(CS(=O)(=O)NCc5ccccn5)cc4c(=O)c3c2)cn1 [MK-8033] | –
– | > 30 µM (inactive) | > 30 µM (inactive) | > 30 µM (inactive) | > 30 µM (inactive) | – | – | – | – | > 30 µM (inactive) | – | > 30 µM (inactive) | – | CC(C)c1cc(CNc2nc(Nc3cc(C4CC4)[nH]n3)cc(N3CCN(C)CC3)n2)on1 [XL-228] | –
